Experimental data taken from ChEMBL document CHEMBL5331104, “Discovery of BRD4-HDAC Dual Inhibitors with Improved Fungal Selectivity and Potent Synergistic Antifungal Activity against Fluconazole-Resistant Candida albicans” (J Med Chem, 2023).
≈ marks a conversion by molar mass, not a printed value. Calls of active or inactive are those of the source. No cut-off for these calls is given here.

Legend:
Cryptococcus neoformans [1] = assay: (§1) Synergetic antifungal activity against Cryptococcus neoformans 011405 assessed as microbial growth inhibition incubated for 24 hrs in the presence of (S)-4-((2-(6-(4-Chlorophenyl)-1-methyl-7,8,9,10-tetrahydro-4H-benzo-(4,5)thieno[3,2-f][1,2,4]triazolo(4,3-a)(1,4)diazepin-4-yl)-acetamido)-methyl)-N-hydroxybenzamide by checkerboard microdilution method; type: functional
Candida albicans [2] = assay: Downregulation of ERG11 expression in Candida albicans 0304103 at 32 ug/mL incubated for 24 hrs by RT q-PCR analysis; type: functional; details: dose 32.0 µg/ml
Candida albicans [3] = assay: as §1, with “Candida albicans 10061” for “Cryptococcus neoformans 011405”; type: functional
Candida albicans [4] = assay: Synergetic antifungal activity against Candida albicans 0304103 assessed as microbial growth inhibition incubated for 24 hrs in the presence of (S, E)-N-Hydroxy-3-(4-(2-(1-methyl-6-(p-tolyl)-4H-benzo(f)-(1,2,4)triazolo(4,3-a)[1,4]diazepin-4-y)acetamido)phenyl)-acrylamide by checkerboard microdilution method; type: functional
Candida albicans [5] = assay: (§2) Synergetic antifungal activity against Candida albicans 0304103 assessed as microbial growth inhibition incubated for 24 hrs in the presence of (+)-JQ1 by checkerboard microdilution method; type: functional
Candida albicans [6] = assay: as §2, with “(S,E)-3-(4-(2-(6-(4-Chlorophenyl)-1-methyl-7,8,9,10-tetrahydro-4H-benzo-(4,5]thieno(3,2-f)(1,2,4)triazolo(4,3-a)(1,4]diazepin-4-yl)acetamido)pheny1)N-hydroxyacrylamide” for “(+)-JQ1”; type: functional
Candida albicans [7] = assay: Downregulation of CDR2 expression in Candida albicans 0304103 at 32 ug/mL incubated for 24 hrs by RT q-PCR analysis; type: functional; details: dose 32.0 µg/ml
Candida albicans [8] = assay: as §2, with “(S)-N-Hydroxy-2-(4-(2-(1-methyl-6-(p-toly1)-4H-benzo[f](1,2,4)-triazolo[4,3-a][1,4]diazepin-4-yl)acetamido)phenyl)acetamideby” for “(+)-JQ1 by”; type: functional
Candida albicans [9] = assay: as §2, with “(S)-N-Hydroxy-4-((2-(1-methyl-6-(p-toly1)-4H-benzo[f](1,2,4)-triazolo-(4,3-a][1,4]diazepin-4-y1)acetamido)methyl)benzamide” for “(+)-JQ1”; type: functional
[Candida] auris [10] = Antifungal activity against Candida auris 0030 assessed as microbial growth inhibition; type: functional; details: Candidozyma auris
Candida albicans [11] = assay: Downregulation of MDR1 expression in Candida albicans 0304103 at 32 ug/mL incubated for 24 hrs by RT q-PCR analysis; type: functional; details: dose 32.0 µg/ml
Candida albicans [12] = assay: as §2, with “(S)-2-(6-(4-Chlorophenyl)-1-methyl-4H-benzo[f][1,2,4]triazolo-14,3-a)(1,4)diazepin-4-yl)-N-(4-(2-(hydroxyamino)-2-oxoethyl)-phenyl)acetamide” for “(+)-JQ1”; type: functional
Candida albicans [13] = assay: Downregulation of CDR1 expression in Candida albicans 0304103 at 32 ug/mL incubated for 24 hrs by RT q-PCR analysis; type: functional; details: dose 32.0 µg/ml
Candida albicans [14] = assay: Synergetic antifungal activity against Candida albicans 0304103 assessed as microbial growth inhibition incubated for 24 hrs in the presence of (S)-N-Hydroxy-4-(2-(1-methyl-6-phenyl-4H-benzo[f](1,2,4)-triazolo-[4,3-a],[1,4]diazepin-4-yl)acetamido)benzamide by checkerboard microdilution method; type: functional
Candida albicans [15] = assay: as §2, with “(S)-N-Hydroxy-2-(4-(2-(l-methyl-6-phenyl-4H-benzo[f](1,2,4)-triazolo-[4,3-a][1,4]diazepin 4-yl)acetamido)phenyl)acetamide” for “(+)-JQ1”; type: functional
Candida albicans [16] = assay: Synergetic antifungal activity against Candida albicans 0304103 assessed as microbial growth inhibition incubated for 24 hrs in the presence of SAHA by checkerboard microdilution method; type: functional
Candida albicans [17] = assay: as §2, with “(S,E)-3-(4-(2-(6-(4-Chlorophenyl)-1-methy1-4H-benzo[f][1,2,4]-triazolo(4,3-a)[1,4]diazepin-4-yl)acetamido)phenyl)-N-hydroxyacrylamide” for “(+)-JQ1”; type: functional
Candida albicans [18] = assay: Antifungal activity against Candida albicans 9884 assessed as microbial growth inhibition; type: functional
[Candida] auris [19] = as §1, with “Candida auris 0029” for “Cryptococcus neoformans 011405”; type: functional; details: Candidozyma auris
Cryptococcus neoformans [20] = assay: Antifungal activity against Cryptococcus neoformans H99 assessed as fungal growth inhibition incubated for 24 hrs by broth dilution method; type: functional
Candida albicans [21] = assay: as §2, with “(S)-2-(8-Chloro-6-(2-chlorophenyl)-1-methyl-4H-benzo[f][1,2,4]-triazolo(4,3-a][1,4]diazepin-4-y1)-N-(4-(2-(hydroxyamino)-2-oxoethyl)-phenyl)acetamide” for “(+)-JQ1”; type: functional
[Candida] auris [22] = as §1, with “Candida auris 0030” for “Cryptococcus neoformans 011405”; type: functional; details: Candidozyma auris
Nakaseomyces glabratus [23] = assay: as §1, with “Candida glabrata 4408” for “Cryptococcus neoformans 011405”; type: functional
Candida albicans [24] = assay: as §2, with “(S)-4-(2-(6-(4-Chlorophenyl)-1-methyl-4H-benzo[f](1,2,4)-triazolo(4,3-a)(1,4)diazepin-4-yl)acetamido)-N-hydroxybenzamide” for “(+)-JQ1”; type: functional
Candida albicans [25] = assay: as §2, with “(S,E)-3-(4-(2-(8-Chloro-6-(2-chlorophenyl)-1-methyl-4H-benzo-[f][1,2,4]triazolo[4,3-a](1,4)diazepin-4-yl)acetamido)pheny1)-N-hydroxy-acrylamide” for “(+)-JQ1”; type: functional
Candida albicans [26] = assay: Antifungal activity against Candida albicans 0304103 assessed as reduction in yeast to hypha transition at 32 ug/mL incubated for 2 hrs by inverse fluorescence microscopy; type: functional, organism-based; details: dose 32.0 µg/ml
Candida albicans [27] = assay: Downregulation of ADH5 expression in Candida albicans 0304103 at 32 ug/mL incubated for 24 hrs by RT q-PCR analysis; type: functional; details: dose 32.0 µg/ml
Nakaseomyces glabratus [28] = assay: Antifungal activity against Candida glabrata 4408 assessed as microbial growth inhibition; type: functional
Candida albicans [29] = assay: Synergetic antifungal activity against Candida albicans 0304103 assessed as microbial growth inhibition incubated for 24 hrs in the presence of (S)-N-Hydroxy-4-((2(1-methyl-6-phenyl-4H-benzor[f](1,2,4)-triazolo-[4,3-a][1,4]diazepin 4-yl)acetamido)methyl)benzamide by checkerboard microdilution method; type: functional
Candida albicans [30] = assay: Antifungal activity against Candida albicans 10061 assessed as microbial growth inhibition; type: functional
Candida albicans [31] = assay: Antifungal activity against Candida albicans 9172 assessed as microbial growth inhibition; type: functional
Candida albicans [32] = assay: as §2, with “(S)-4-(2-(6-(4-Chloropheny1)-1-methy1-4H-benzo(f)(1,2,4)-triazolo(4,3-a)[1,4]diazepin-4-yl)acetamido)methyl)-N-hydroxybenzamide” for “(+)-JQ1”; type: functional
[Candida] auris [33] = Antifungal activity against Candida auris 0029 assessed as microbial growth inhibition; type: functional; details: Candidozyma auris
Candida albicans [34] = assay: as §2, with “(S,E)-N-Hydroxy-3-(4-(2-(l-methyl-6-phenyl-4H-benzo[f][1,2,4]-triazolo[4,3-a][1,4]diazepin-4-y1)acetamido)phenyl)acrylamide” for “(+)-JQ1”; type: functional
Candida albicans [35] = assay: as §2, with “(S)-2-(6-(4-Chlorophenyl)-1-methyl-7,8,9,10-tetrahydro-4H-benzo-(4,5)thieno[3,2-f][1,2,4]triazolo(4,3-a)(1,4)diazepin-4-yl)-N-(4-(2-(hydroxyamino)-2-oxoethyl)phenyl)acetamide” for “(+)-JQ1”; type: functional
Candida albicans [36] = assay: as §2, with “(S)-4-((2-(8-Chloro-6-(2-chloropheny1)-1-methyl-4H-benzo[f]-[1,2,4]-triazolo(4,3-a)(1,4]diazepin-4-yl)acetamido)methyl)-N-hydroxy-benzamide” for “(+)-JQ1”; type: functional

`OC(Cn1cncn1)(Cn1cncn1)c1ccc(F)cc1F` [FLUCONAZOLE] was tested, and the MIC80 (Cryptococcus neoformans [1]) was 2 µg/mL, the Activity (Candida albicans [2]) was “inactive” and the MIC80 (Candida albicans [3]) was 1 µg/mL. The MIC80 (Candida albicans [4]) was 2 µg/mL, the MIC80 (Candida albicans [5]) was > 64 µg/mL and the MIC80 (Candida albicans [6]) was 0.25 µg/mL. The Activity (Candida albicans [7]) was “inactive”, the MIC80 (Candida albicans [8]) was 1 µg/mL and the MIC80 (Candida albicans [9]) was 1 µg/mL. The MIC80 ([Candida] auris [10]) was > 64 µg/mL, the Activity (Candida albicans [11]) was “inactive” and the MIC80 (Candida albicans [12]) was 16 µg/mL. For the same molecule, the Activity (Candida albicans [13]) was “inactive”, the MIC80 (Candida albicans [14]) was 2 µg/mL and the MIC80 (Candida albicans [15]) was 4 µg/mL. It also gave an MIC80 (Candida albicans [16]) of 4 µg/mL, an MIC80 (Candida albicans [17]) of 0.25 µg/mL and an MIC80 (Candida albicans [18]) of 2 µg/mL (≈ 6.53 µM). It also gave an MIC80 ([Candida] auris [19]) of 64 µg/mL, an MIC80 (Cryptococcus neoformans [20]) of 1 µg/mL (≈ 3.27 µM) and an MIC80 (Candida albicans [21]) of 1 µg/mL. For the same molecule, the MIC80 ([Candida] auris [22]) was 64 µg/mL, the MIC80 (Nakaseomyces glabratus [23]) was 2 µg/mL and the MIC80 (Candida albicans [24]) was 4 µg/mL. The MIC80 (Candida albicans [25]) was 0.5 µg/mL, the Activity (Candida albicans [26]) was “inactive” and the Activity (Candida albicans [27]) was “inactive”. The MIC80 (Nakaseomyces glabratus [28]) was 64 µg/mL (≈ 209 µM), the MIC80 (Candida albicans [29]) was 1 µg/mL and the MIC80 (Candida albicans [30]) was > 64 µg/mL. The MIC80 (Candida albicans [31]) was > 64 µg/mL, the MIC80 (Candida albicans [32]) was 2 µg/mL and the MIC80 ([Candida] auris [33]) was > 64 µg/mL. For the same molecule, the MIC80 (Candida albicans [34]) was 2 µg/mL, the MIC80 (Candida albicans [35]) was 0.5 µg/mL and the MIC80 (Candida albicans [36]) was 2 µg/mL.
